Experimental data as given in patent publication US11401278B2, “Macrocyclic indole derivatives” (The Broad Institute, Inc., priority 2017, dated 2022).
Structures can show the parent of a compound that is named as a salt. Where two headings read alike, the source gives them in different places.

Tests used:
[1] = test system: SUDHL10; assay: Antiproliferation assay (Assay 7), SUDHL10; assay type: cell-based; conditions: CellTiter-Glo, median, read-out: Antiproli SUDHL10 [M] (median) IC50
Protocol: (§1) Assessment of the Anti-Proliferative Effect of Compounds in Different Cell Lines
(§2) The impact of compounds on the proliferation of different cell lines was assessed using the CellTiter-Glo® Luminescent Cell Viability reagent from Promega (G7573).
(§3) In parallel, cells were plated in a reference (day 0) plate for time zero determination.
(§4) Rim wells were excluded. The cells were incubated for 72 hours in a humidified incubator at 37° C. The day 0 plate was measured by adding 30 μL/well of CTG solution (CellTiter-Glo® Luminescent Cell Viability reagent, Promega G7573) to time zero wells in the reference plate followed by a 10 minutes incubation and luminescence reading at 0.1 ms. using the PHERAstar FS microplate reader (BMG Labtech).
(§5) After 72 hours incubation, the treated plates were measured in the same way as the day 0 plate mentioned above.

[2] = test system: PA-1; assay: Antiproliferation assay (Assay 7), PA-1; assay type: cell-based; conditions: Homo sapiens, CellTiter-Glo, 72 hours, median, read-out: Antiproli PA-1 [M] median IC50
Protocol: as §1, §2, §3, §4, §5

[3] = test system: A-431; assay: Antiproliferation assay (Assay 7), A-431; assay type: cell-based; conditions: Homo sapiens, CellTiter-Glo, 72 hours, median, read-out: Antiproli A-431 [M] median IC50
Protocol: as §1, §2, §3, §4, §5

[4] = test system: SNU-16; assay: Antiproliferation assay (Assay 7), SNU-16; assay type: cell-based; conditions: Homo sapiens, CellTiter-Glo, 72 hours, median, read-out: Antiproli SNU-16 [M] median IC50
Protocol: as §1, §2, §3, §4, §5

[5] = test system: DM-S114; assay: Antiproliferation assay (Assay 7), DM-S114; assay type: cell-based; conditions: Homo sapiens, DMS-114, CellTiter-Glo, 72 hours, median, read-out: Antiproli DM-S114 [M] median IC50
Protocol: as §1, §2, §3, §4, §5

[6] = test system: SK-MEL-2; assay: Antiproliferation assay (Assay 7), SK-MEL-2; assay type: cell-based; conditions: Homo sapiens, CellTiter-Glo, 72 hours, median, read-out: Antiproli SK-MEL-2 [M] median IC50
Protocol: as §1, §2, §3, §4, §5

[7] = from CCOC(=O)c1[nH]c2c(-c3c(CN(CCCN4CCOCC4)S(=O)(=O)CCCCl)nn(C)c3CC)cccc2c1CCCOc1cccc2ccccc12; amine bond; NaH; DMF; 25.0 mM; 60.0 °C; 6.0 h; 2 steps
[8] = test system: SUDHL10
[9] = test system: SUDHL5

Row | IC50 [3] [M] | IC50 [4] [M] | IC50 [6] [M] | Structure (SMILES) | IC50 [2] [M] | other results
1 |  |  |  | Cc1c2c(nn1C)CN(C)S(=O)(=O)CCCn1c(C(=O)O)c(CCCOc3cccc4ccccc34)c3ccc(Cl)c-2c31 (racemic) [Example 4, (rac)-4-Chloro-2,3,14-trimethyl-7-{3-[(naphthalen-1-yl)oxy]propyl}-13,13-dioxo-10,11,12,13,14,15-hexahydro-2H-13λ^6-pyrazolo[3′,4′:4,5][1,2,8]thiadiazacycloundecino-[6,7,8-hi]indole-8-carboxylic acid] |  | IC50 ([1]; Homo sapiens, SU-DHL10, 72 h): 5.6e-07 M
2 | 1.18e-06 | 1.05e-06 | 1.14e-06 | CCc1c2c(nn1C)CN(CC)S(=O)(=O)CCCn1c(C(=O)O)c(CCCOc3cccc4cc(F)ccc34)c3ccc(Cl)c-2c31 (racemic) [Example 56, (rac)-4-chloro-3,14-diethyl-7-{3-[(6-fluoro-1-naphthyl)oxy]propyl}-2-methyl-11,12,14,15-tetrahydro-2H,10H-pyrazolo[3′,4′:4,5][1,2,8]thiadiazacycloundecino[6,7,8-hi]indole-8-carboxylic acid 13,13-dioxide] | 7.07e-07 | IC50 [5]: 5.61e-07 M
3 |  |  |  | CCc1c2c(nn1C)CN(CCCN1CCOCC1)S(=O)(=O)CCCn1c(C(=O)O)c(CCCOc3cccc4ccccc34)c3cccc-2c31 (racemic) [Example 15, (rac)-12-Ethyl-11-methyl-8-(3-morpholinopropyl)-1-(3-(naphthalen-1-yloxy)propyl)-4,5,6,8,9,11-hexahydropyrazolo[3′,4′:4,5][1,2,8]thiadiazacycloundecino[6,7,8-hi]indole-2-carboxylic acid 7,7-dioxide 2,2,2-trifluoroacetic acid salt] |  | ring closure, yield of all isomers [7]: 48.2%
4 | 2.07e-06 | 2.54e-06 | 5.08e-06 | CCc1c2c(nn1C)C(CCC1CCOCC1)N(C)S(=O)(=O)CCCn1c(C(=O)O)c(CCCOc3cccc4cc(F)ccc34)c3ccc(Cl)c-2c31 (racemic) [Example 60, (rac)-4-chloro-3-ethyl-7-{3-[(6-fluoro-1-naphthyl)oxy]propyl}-2,14-dimethyl-15-[2-(tetrahydro-2H-pyran-4-yl)ethyl]-11,12,14,15-tetrahydro-2H,10H-pyrazolo[3′,4′:4,5][1,2,8]thiadiazacycloundecino[6,7,8-hi]indole-8-carboxylic acid 13,13-dioxide (Racemate 1)] | 1.84e-06 | 
5 |  |  |  | Cc1c2c(nn1C)CN(C)S(=O)(=O)CCCn1c(C(=O)O)c(CCCOc3cccc4ccccc34)c3ccc(Cl)c-2c31 (single isomer, unassigned; enantiomer 1) [Example 5, 4-Chloro-2,3,14-trimethyl-7-{3-[(naphthalen-1-yl)oxy]propyl}-13,13-dioxo-10,11,12,13,14,15-hexahydro-2H-13λ^6-pyrazolo[3′,4′:4,5][1,2,8]thiadiazacycloundecino[6,7,8-hi]indole-8-carboxylic acid-N-ethylethanamine salt (Enantiomer 1)] |  | IC50 ([1]; 72 hours): 4.4e-07 M
6 |  |  |  | CCc1c2c(nn1C)C(CCN1CCOCC1)N(C)S(=O)(=O)CCCn1c(C(=O)O)c(CCCOc3cccc4cc(F)ccc34)c3ccc(Cl)c-2c31 (racemic) [Example 73, (rac)-(4-chloro-3-ethyl-7-{3-[(6-fluoronaphthalen-1-yl)oxy]propyl}-2,14-dimethyl-15-[2-(morpholin-4-yl)ethyl]-13,13-dioxo-10,11,12,13,14,15-hexahydro-2H-13lambda^6-pyrazolo[3′,4′:4,5][1,2,8]thiadiazacycloundecino[6,7,8-hi]indole-8-carboxylic acid (Racemate 1)] |  | IC50 [8]: 19 nM; IC50 [9]: 20 nM
